Measurements taken from patent US20240124434A1, “ATF6 INHIBITORS AND USES THEREOF” (Altos Labs, Inc., priority 2018, published 2024).
Counter-ions that a name gives are not always drawn. Like-named read-outs stand apart in the source and are kept apart here.

Test system: ATF6
Assay: ERSE ATF6-luciferase reporter assay (thapsigargin-induced ER stress)
Assay type: cell-based, human
Details: thapsigargin-induced ER stress, U2-OS ATF6 luc reporter cells
[1] = Homo sapiens, U2OS, dose-response 30 μM to 1 nM, read-out: IC50 ATF6-Luc reporter
[2] = Homo sapiens, U2OS, 1 μM test compound, 8 hr, read-out: Inh. ATF6-Luc @ 1 μM [%]
[3] = Homo sapiens, U2OS, 8 h, 1 μM test compound, 8 hr, read-out: Inh. ATF6-Luc @ 1 μM [%]

| Compound | IC50 [1] [µM] | inhibition at 1 µM [3] [%] | further results |
| --- | --- | --- | --- |
| CC(c1ccc(C(F)(F)F)cc1C(F)(F)F)n1cc(NC(=O)c2cc(-c3ccccn3)ccn2)cn1 (stereo not drawn) [Compound 81, N-(1-(1-(2,4-bis(trifluoromethyl)phenyl)ethyl)-1H-pyrazol-4-yl)-[2,4′-bipyridine]-2′-carboxamide] | > 10 |  | inhibition at 1 µM [2]: < 25% |
| O=C(Nc1cnn(-c2ccc(C(F)(F)F)cc2C(F)(F)F)c1)c1cc(-c2ccco2)on1 [Compound 27, N-(1-(2,4-bis(trifluoromethyl)phenyl)-1H-pyrazol-4-yl)-5-(furan-2-yl)isoxazole-3-carboxamide] | > 10 | < 25 |  |
| O=C(Nc1cnn(Cc2ccc(C(F)(F)F)cc2C(F)(F)F)c1)c1cncc(-c2cccnc2)c1 [Compound 15, N-(1-(2,4-bis(trifluoromethyl)benzyl)-1H-pyrazol-4-yl)-[3,3′-bipyridine]-5-carboxamide] | > 10 | < 25 |  |
| O=C(Nc1cnn(C2CCc3ccccc32)c1)c1cc(-c2ccccn2)on1 (stereo not drawn) [Compound 143, N-(1-(2,3-dihydro-1H-inden-1-yl)-1H-pyrazol-4-yl)-5-(pyridin-2-yl)isoxazole-3-carboxamide] | > 10 | < 25 |  |
| C[C@H](c1ccc(C(F)(F)F)cc1C(F)(F)F)n1cc(NC(=O)c2nnc(-c3ccncn3)s2)cn1 [Compound 156, (R)—N-(1-(1-(2,4-bis(trifluoromethyl)phenyl)ethyl)-1H-pyrazol-4-yl)-5-(pyrimidin-4-yl)-1,3,4-thiadiazole-2-carboxamide] | < 1 | 25 to 50 |  |
| C[C@@H](c1ccc(C(F)(F)F)cc1F)n1cc(NC(=O)c2cc(-c3ccccn3)on2)cn1 [Compound 109, (S)—N-(1-(1-(2-fluoro-4-(trifluoromethyl)phenyl)ethyl)-1H-pyrazol-4-yl)-5-(pyridine-2-yl)isoxazole-3-carboxamide] | > 10 | < 25 |  |
| C[C@H](c1ccc(C(F)(F)F)cc1C(F)(F)F)n1cc(NC(=O)c2nnc(-c3ccco3)s2)cn1 [Compound 160, (R)—N-(1-(1-(2,4-bis(trifluoromethyl)phenyl)ethyl)-1H-pyrazol-4-yl)-5-(furan-2-yl)-1,3,4-thiadiazole-2-carboxamide] | > 10 | < 25 |  |
| O=C(Nc1cnn(Cc2ccc(C(F)(F)F)cc2C(F)(F)F)c1)c1cnc(Nc2ccccn2)s1 [Compound 130, N-(1-(2,4-bis(trifluoromethyl)benzyl)-1H-pyrazol-4-yl)-2-(pyridin-2-ylamino)thiazole-5-carboxamide] | > 10 | < 25 |  |
| O=C(Nc1cnn(Cc2ccc(C(F)(F)F)cc2C(F)(F)F)c1)c1nc(-c2cccc(F)c2)no1 [Compound 4, N-(1-(2,4-bis(trifluoromethyl)benzyl)-1H-pyrazol-4-yl)-3-(3-fluorophenyl)-1,2,4-oxadiazole-5-carboxamide formate] | > 10 |  | inhibition at 1 µM [2]: < 25% |
| C[C@H](c1ccc(C(F)(F)F)cc1C(F)(F)F)n1cc(NC(=O)c2cc(-c3cccnc3)on2)cn1 [Compound 36, (R)-N-(1-(1-(2,4-bis(trifluoromethyl)phenyl)ethyl)-1H-pyrazol-4-yl)-5-(pyridin-3-yl)isoxazole-3-carboxamide] | > 10 | < 25 |  |
| Ceapin-A8 [reference compound] |  |  | Inh. ATF6-Luc @ 1 μM [%] (1 μM test compound, 8 hr): + (+ refers to <25% inhibition at 1 μM); IC50 (dose-response 30 μM to 1 nM, read-out: IC50 ATF6-Luc reporter): > 10 µM |
| C[C@@H](c1ccc(C(F)(F)F)cc1C(F)(F)F)n1cc(NC(=O)c2cc(-c3ccccn3)no2)cn1 [Compound 77, (S)—N-(1-(1-(2,4-bis(trifluoromethyl)phenyl)ethyl)-1H-pyrazol-4-yl)-3-(pyridin-2-yl)isoxazole-5-carboxamide] |  |  | inhibition at 1 µM (Homo sapiens, U2OS, 8 h, read-out: Inh. ATF6-Luc @ 1 μM [%], 1 μM test compound, 8 hr): < 25%; IC50 (Homo sapiens, U2OS, read-out: IC50 ATF6-Luc reporter [μM], dose-response 30 μM to 1 nM): > 10 µM |
| CC(c1ccc(C(F)(F)F)cc1C(F)(F)F)n1cc(NC(=O)/C=C/c2ccccn2)cn1 (stereo not drawn) [Compound 83, (E)—N-(1-(1-(2,4-bis(trifluoromethyl)phenyl)ethyl)-1H-pyrazol-4-yl)-3-(pyridin-2-yl)acrylamide] | > 10 | < 25 |  |
| Cc1c(C(=O)Nc2cnn(Cc3ccc(C(F)(F)F)cc3C(F)(F)F)c2)noc1-c1ccccn1 [Compound 135, N-(1-(2,4-bis(trifluoromethyl)benzyl)-1H-pyrazol-4-yl)-4-methyl-5-(pyridin-2-yl)isoxazole-3-carboxamide] | > 10 | 25 to 50 |  |
| C[C@H](c1ccc(C(F)(F)F)cc1F)n1cc(NC(=O)c2cc(-c3ccccn3)on2)cn1 [Compound 108, (R)—N-(1-(1-(2-fluoro-4-(trifluoromethyl)phenyl)ethyl)-1H-pyrazol-4-yl)-5-(pyridine-2-yl)isoxazole-3-carboxamide] | > 10 | < 25 |  |
| CC(C)(O)c1cc(C(=O)Nc2cnn(Cc3ccc(C(F)(F)F)cc3C(F)(F)F)c2)no1 [Compound 2, N-(1-(2,4-bis(trifluoromethyl)benzyl)-1H-pyrazol-4-yl)-5-(2-hydroxypropan-2-yl)isoxazole-3-carboxamide] | > 10 | < 25 |  |
| Cc1nn(-c2ccc(C(F)(F)F)cc2C(F)(F)F)cc1NC(=O)c1cc(-c2ccco2)on1 [Compound 94, N-(1-(2,4-bis(trifluoromethyl)phenyl)-3-methyl-1H-pyrazol-4-yl)-5-(furan-2-yl)isoxazole-3-carboxamide] | > 10 | < 25 |  |
| O=C(Nc1cnn(Cc2ccc(C(F)(F)F)cc2C(F)(F)F)c1)c1cc(-c2ccc(F)cc2F)on1 [Compound 16, N-(1-(2,4-bis(trifluoromethyl)benzyl)-1H-pyrazol-4-yl)-5-(2,4-difluorophenyl)isoxazole-3-carboxamide] | > 10 | < 25 |  |

Now from value to compound, other results behind:

| IC50 [1] [µM] | Compound | inhibition at 1 µM [3] [%] | further results |
| --- | --- | --- | --- |
| > 10 | C[C@H](c1ccc(C(F)(F)F)cc1C(F)(F)F)n1cc(NC(=O)c2nnc(-c3ccccn3)o2)cn1 [Compound 133, (R)—N-(1-(1-(2,4-bis(trifluoromethyl)phenyl)ethyl)-1H-pyrazol-4-yl)-5-(pyridin-2-yl)-1,3,4-oxadiazole-2-carboxamide] | < 25 |  |
| > 10 | CC(=O)c1cc(C(=O)Nc2cnn(Cc3ccc(C(F)(F)F)cc3C(F)(F)F)c2)no1 [Compound 3, 5-acetyl-N-(1-(2,4-bis(trifluoromethyl)benzyl)-1H-pyrazol-4-yl)isoxazole-3-carboxamide] | < 25 |  |
| > 10 | O=C(Nc1cnn([C@@H]2CCc3ccccc32)c1)c1cc(-c2ccco2)on1 [Compound 149, (R)—N-(1-(2,3-dihydro-1H-inden-1-yl)-1H-pyrazol-4-yl)-5-(furan-2-yl)isoxazole-3-carboxamide] | < 25 |  |
| > 10 | CC(c1ccc(C(F)(F)F)cc1C(F)(F)F)n1cc(NC(=O)c2cc(-c3ccccn3)n(C)n2)cn1 (stereo not drawn) [Compound 113, N-(1-(1-(2,4-bis(trifluoromethyl)phenyl)ethyl)-1H-pyrazol-4-yl)-1-methyl-5-(pyridin-2-yl)-1H-pyrazole-3-carboxamide] | < 25 |  |
| > 10 | O=C(Nc1cnn(Cc2c(Cl)cccc2Cl)c1)c1cc(-c2ccco2)on1 [Compound 24, N-(1-(2,6-dichlorobenzyl)-1H-pyrazol-4-yl)-5-(furan-2-yl) isoxazole-3-carboxamide] | < 25 |  |
| > 10 | O=C(Nc1cnn(Cc2c(Cl)cccc2Cl)c1)c1cc(-c2ccccn2)on1 [Compound 146, N-(1-(2,6-dichlorobenzyl)-1H-pyrazol-4-yl)-5-(pyridin-2-yl)isoxazole-3-carboxamide] | < 25 |  |
| > 10 | C[C@H](c1ccc(C(F)(F)F)cc1C(F)(F)F)n1cc(NC(=O)c2ccccn2)cn1 [Compound 140, (R)—N-(1-(1-(2,4-bis(trifluoromethyl)phenyl)ethyl)-1H-pyrazol-4-yl)picolinamide] | < 25 |  |
| > 10 | C[C@@H](c1ccc(C(F)(F)F)cc1C(F)(F)F)n1cc(NC(=O)c2cnccn2)cn1 [Compound 141, (S)—N-(1-(1-(2,4-bis(trifluoromethyl)phenyl)ethyl)-1H-pyrazol-4-yl)pyrazine-2-carboxamide] | < 25 |  |
| > 10 | C[C@@H](c1ccc(C(F)(F)F)cc1C(F)(F)F)n1cc(NC(=O)/C=C/c2ccco2)cn1 [Compound 86, (S,E)—N-(1-(1-(2,4-bis(trifluoromethyl)phenyl)ethyl)-1H-pyrazol-4-yl)-3-(furan-2-yl)acrylamide] | < 25 |  |
| > 10 | Cc1nc(-c2ccccn2)sc1C(=O)Nc1cnn([C@H](C)c2ccc(C(F)(F)F)cc2C(F)(F)F)c1 [Compound 106, (R)—N-(1-(1-(2,4-bis(trifluoromethyl)phenyl)ethyl)-1H-pyrazol-4-yl)-4-methyl-2-(pyridin-2-yl)thiazole-5-carboxamide] | < 25 |  |
| > 10 | Cc1nn(Cc2ccc(C(F)(F)F)cc2C(F)(F)F)cc1NC(=O)/C=C/c1ccco1 [Compound 96, (E)—N-(1-(2,4-bis(trifluoromethyl)benzyl)-3-methyl-1H-pyrazol-4-yl)-3-(furan-2-yl)acrylamide] | < 25 |  |
| 1 to 10 | Cc1c(NC(=O)c2cc(-c3ccccn3)on2)cnn1Cc1ccc(C(F)(F)F)cc1C(F)(F)F [Compound 30, N-(1-(2,4-bis(trifluoromethyl)benzyl)-5-methyl-1H-pyrazol-4-yl)-5-(pyridin-2-yl)isoxazole-3-carboxamide] | 25 to 50 |  |
